Series [1] deals with T1, Leukotriene A-4 hydrolase (Homo sapiens, UniProt P09960).
T1 sequence (P09960 whole entry): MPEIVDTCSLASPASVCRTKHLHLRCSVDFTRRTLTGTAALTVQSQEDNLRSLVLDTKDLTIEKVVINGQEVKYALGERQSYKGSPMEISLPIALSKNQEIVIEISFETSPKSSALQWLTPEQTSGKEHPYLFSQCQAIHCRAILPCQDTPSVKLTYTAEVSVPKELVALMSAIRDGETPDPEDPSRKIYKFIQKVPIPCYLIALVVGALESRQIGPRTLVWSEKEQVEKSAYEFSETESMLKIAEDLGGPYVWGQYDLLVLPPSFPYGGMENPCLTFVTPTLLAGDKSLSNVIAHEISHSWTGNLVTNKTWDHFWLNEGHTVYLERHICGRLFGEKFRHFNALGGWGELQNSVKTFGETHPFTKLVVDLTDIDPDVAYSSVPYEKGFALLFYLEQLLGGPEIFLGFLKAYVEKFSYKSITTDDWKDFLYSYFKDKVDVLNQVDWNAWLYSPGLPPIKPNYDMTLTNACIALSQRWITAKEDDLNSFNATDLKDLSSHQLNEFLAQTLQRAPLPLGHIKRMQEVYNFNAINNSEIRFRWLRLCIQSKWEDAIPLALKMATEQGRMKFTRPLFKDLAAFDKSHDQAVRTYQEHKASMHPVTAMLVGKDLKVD

The target of series [2] is T1, Leukotriene A-4 hydrolase. The source holds these as a separate data set.
A short description of series [3]: Clearance in iv dosed rat. As to conditions: in vivo. The series is classed as ADME, organism-based.
Series [4] can be described thus: Oral bioavailability in rat. It counts as ADME, organism-based. To be noted: in vivo.
Series [5] can be described thus: Half life in iv dosed rat. It counts as ADME, organism-based. To be noted: in vivo.
The nature of series [6]: Metabolic stability in rat microsomes assessed as compound remaining after 1 hr. It counts as ADME, Microsome. As to conditions: read-out: Stability.
For series [7], the target named is T1, Leukotriene A-4 hydrolase. This is another data set of the same source.

This note sets out measurements from ChEMBL document CHEMBL1155105, “Synthesis of N-alkyl glycine amides as potent inhibitors of leukotriene A4 hydrolase” (Bioorg Med Chem Lett, 2008).

Each structure is given as a SMILES string.

Take `CN(CCCN(C)Cc1ccc(C(=O)O)cc1)CC(=O)Nc1ccc(OCC(O)c2ccccc2)cc1` (stereo not given): the IC50 is 210 nM in series [1] and 19 nM in series [2].
`CN(CCCN(C)Cc1ccc(C(=O)O)cc1)CC(=O)Nc1ccc(Oc2ccc(-c3ncco3)cc2)cc1`: the IC50 in series [1] turned out to be 60 nM; in series [2] it was 5 nM.
Take `O=C(CNCCCNCc1ccc(C(=O)O)cc1)Nc1ccc(Oc2ccccc2)cc1`: the values for the IC50 in series [1] and in series [2] were more than 1000 nM and 370 nM, respectively.
Regarding `CN(CCCN(C)Cc1ccc(C(=O)O)cc1)CC(=O)Nc1ccc(Oc2ccc(Cl)cc2)cc1`, the IC50 came to 90 nM in series [1] and 17 nM in series [2].
The like results for `CN(Cc1ccc(C(=O)O)cc1)C1CCCN(CC(=O)Nc2ccc(Oc3ccccc3)cc2)CC1` (stereo not given) were, in that order, 220 nM and 140 nM.
On to `CN(CCCN(C)CC1CCC(C(=O)O)CC1)CC(=O)Nc1ccc(Oc2ccccc2)cc1` (stereo not given), for which the IC50 was found to be 430 nM in series [1] and 25 nM in series [2].
Take `CN(CCCN(C)Cc1ccc(C(=O)O)cc1F)CC(=O)Nc1ccc(Oc2ccccc2)cc1`: the IC50 in series [1] worked out at 160 nM; in series [2], 7 nM.
In the same order, the values of `CN(CCCN(C)CC(=O)Nc1ccc(Oc2ccccc2)cc1)CCc1ccc(C(=O)O)cc1` are 80 nM and 3 nM.
In the same order, the values of `CN(CCCN(C)Cc1ccc(S(N)(=O)=O)cc1)CC(=O)Nc1ccc(Oc2ccccc2)cc1` are more than 1000 nM and 33 nM.
In the same order, the values of `CN(Cc1ccc(C(=O)O)cc1)C1CCN(CC(=O)Nc2ccc(Oc3ccccc3)cc2)CC1` are 260 nM and 490 nM.
Take `CN(CCCN(C)Cc1ccc(C(=O)O)cc1[N+](=O)[O-])CC(=O)Nc1ccc(Oc2ccccc2)cc1`: the IC50 in series [1] was determined as 290 nM; in series [2], 15 nM.
In the same order, the values of `CN(CCCN(C)Cc1ccc(C(=O)O)c(F)c1)CC(=O)Nc1ccc(Oc2ccccc2)cc1` are 340 nM and 6 nM.
The like results for `CN(CCCN(C)Cc1ccc(C(=O)O)c(Br)c1)CC(=O)Nc1ccc(Oc2ccccc2)cc1` were, in that order, 360 nM and 10 nM.
The like results for `O=C(CN1CCCN(Cc2ccc(C(=O)O)cc2)CC1)Nc1ccc(Oc2ccccc2)cc1` were, in that order, 180 nM and 70 nM.
In turn, `CN(CC(=O)Nc1ccc(Oc2ccccc2)cc1)C[C@H]1CCCN1Cc1ccc(C(=O)O)cc1` registered a clearance in series [3] of 28 mL/min/kg. Moreover, the IC50 was found to be 30 nM in series [1] and 7 nM in series [2]. For the same compound, the bioavailability in series [4] turned out to be 45%. In series [5], this compound had a half-life of 2.6 h.
Regarding `CN(CCCN(C)Cc1ccc(C(=O)O)cc1)CC(=O)Nc1ccc(Oc2ccc(F)cc2)cc1`, the IC50 is 120 nM in series [1] and 6 nM in series [2].
For the compound `CN(CCCN(C)Cc1ccccc1)CC(=O)Nc1ccc(Oc2ccccc2)cc1`, the remaining at 1 h in series [6] is less than 33%. In addition, the IC50 was determined as 350 nM in series [1] and 90 nM in series [2].
For `CN(CCCC(=O)O)CCCN(C)CC(=O)Nc1ccc(Oc2ccccc2)cc1`, the IC50 came to 1500 nM in series [1] and 110 nM in series [2].
Regarding `CN(CCCCC(=O)O)CCCN(C)CC(=O)Nc1ccc(Oc2ccccc2)cc1`, the IC50 was found to be 230 nM in series [1] and 18 nM in series [2].
`CN(CCCN(C)Cc1ccc(C(=O)O)cc1)CC(=O)Nc1ccc(Oc2ccccc2)cc1` showed a clearance in series [3] of 38 mL/min/kg. Besides, the remaining at 1 h in series [6] is more than 90%. The IC50 in series [1] was 120 nM; in series [2], 6 nM. Also, in series [4], the bioavailability came to 45%. The compound further gave a half-life in series [5] of 0.9 h.
On to `CN(CCCN(C)Cc1ccc(C(=O)O)cc1)CC(=O)Nc1ccc(Oc2ccccc2F)cc1`, for which the IC50 was determined as 230 nM in series [1] and 16 nM in series [2].
Take `CN(C)CCCN(C)CC(=O)Nc1ccc(Oc2ccccc2)cc1`: the remaining at 1 h in series [6] was less than 33%. Also, the figures for the IC50 in series [1] and in series [2] were 135 nM and 160 nM, respectively.
For `CN(CCCNCC(=O)Nc1ccc(Oc2ccccc2)cc1)Cc1ccc(C(=O)O)cc1`, the IC50 was more than 1000 nM in series [1] and 330 nM in series [2].
The like results for `CN(CCCNCc1ccc(C(=O)O)cc1)CC(=O)Nc1ccc(Oc2ccccc2)cc1` were, in that order, 420 nM and 19 nM.
The like results for `CN(CC(=O)Nc1ccc(Oc2ccccc2)cc1)C1CCCN(Cc2ccc(C(=O)O)cc2)CC1` (stereo not given) were, in that order, 380 nM and 160 nM.
The like results for `CN(CCN(C)Cc1ccc(C(=O)O)cc1)CC(=O)Nc1ccc(Oc2ccccc2)cc1` were, in that order, 140 nM and 15 nM.
With `CN(CCCN(C)Cc1ccc(C(=O)O)o1)CC(=O)Nc1ccc(Oc2ccccc2)cc1`, the IC50 in series [1] stood at 440 nM; in series [2], 28 nM.
Regarding `O=C(CN1CCN(Cc2ccc(C(=O)O)cc2)CC1)Nc1ccc(Oc2ccccc2)cc1`, the results for the IC50 in series [1] and in series [2] were more than 1000 nM and 1000 nM, respectively.
Turning to `CN(CCCN(C)Cc1ccc(C(=O)O)cc1)CC(=O)Nc1ccc(Cc2ccccc2)cc1`, the results for the IC50 in series [1] and in series [2] were 70 nM and 3 nM, respectively.
In the same order, the values of `CN(CC(=O)Nc1ccc(Oc2ccccc2)cc1)C[C@@H]1CCCN1Cc1ccc(C(=O)O)cc1` are 200 nM and 100 nM.
The like results for `O=C(CN1CC2CC1CN2Cc1ccc(C(=O)O)cc1)Nc1ccc(Oc2ccccc2)cc1` (stereo not given) were, in that order, 240 nM and 44 nM.
On to `CN(CCCN(C)Cc1ccc(-c2nnn[nH]2)cc1)CC(=O)Nc1ccc(Oc2ccccc2)cc1`, for which the IC50 in series [1] came to 250 nM; in series [2], 4 nM.
In the same order, the values of `CN(Cc1ccc(C(=O)O)cc1)CC1CCCCN1CC(=O)Nc1ccc(Oc2ccccc2)cc1` (stereo in doubt; 4n) are 100 nM and 17 nM.
In the same order, the values of `CN(Cc1ccc(C(=O)O)cc1)CC1CCCCN1CC(=O)Nc1ccc(Oc2ccccc2)cc1` (stereo in doubt; 4o) are 60 nM and 16 nM.
As to `CN(Cc1ccc(C(=O)O)cc1)CC1CCCN1CC(=O)Nc1ccc(Oc2ccccc2)cc1` (stereo in doubt; 4r), the IC50 came to 26 nM in series [2] and 60 nM in series [7].
In the case of `CN(Cc1ccc(C(=O)O)cc1)CC1CCCN1CC(=O)Nc1ccc(Oc2ccccc2)cc1` (stereo in doubt; 4s), the figures for the IC50 in series [1] and in series [2] were 60 nM and 17 nM, respectively.
In the same order, the values of `CN(CC(=O)Nc1ccc(Oc2ccccc2)cc1)C1CCN(Cc2ccc(C(=O)O)cc2)C1` (stereo in doubt; 4t) are 180 nM and 120 nM.
On to `CN(CC(=O)Nc1ccc(Oc2ccccc2)cc1)C1CCN(Cc2ccc(C(=O)O)cc2)C1` (stereo in doubt; 4u), for which the IC50 in series [1] was determined as 220 nM; in series [2], 57 nM.
